Measured values as given in patent publication US6583156B1 (Vernalis Research Limited, priority 1998, dated 2003).
pKi: −log10 of the molar value. Values belong to the molecule of their own block, whether it stands above or below them.

Experiments:
[1] = target: human adenosine A2A receptors (Homo sapiens, UniProt P29274); test: Binding affinities at hA2A receptors, displacement of [3H]-CGS 21680; conditions: in vitro binding, radioligand [3H]-CGS 21680
Text: The compounds were examined in an assay measuring in vitro binding to human adenosine A2A receptors by determining the displacement of the adenosine A2A receptor selective radioligand [^3H]-CGS 21680 using standard techniques.

[2] = test system: haloperidol-induced hypolocomotion; test: Haloperidol-induced hypolocomotion model; type: in vivo; conditions: mice, 10 mg/kg intraperitoneally, haloperidol 0.2 mg/kg
Text: This approach is also considered a valid method for screening drugs with potential antiparkinsonian effects. Thus, the ability of novel adenosine antagonists to block haloperidol-induced deficits in locomotor activity in mice can be used to assess both in vivo and potential antiparkinsonian efficacy.
Female TO mice (25-30 g) obtained from TUCK, UK, are used for all experiments. Animals are housed in groups of 8 [cage size−40 (width)×40 (length)×20 (height)cm] under 12 hr light/dark cycle (lights on 08:00 hr), in a temperature (20±2° C.) and humidity (55±15%) controlled environment. Animals have free access to food and water, and are allowed at least 7 days to acclimatize after delivery before experimental use.
Liquid injectable haloperidol (1 ml Serenance ampoules from Baker Norton, Harlow, Essex, each containing haloperidol BP 5 mg, batch # P424) are diluted to a final concentration of 0.02 mg/ml using saline. Test compounds are typically prepared as aqueous suspensions in 8% Tween. All compounds are administered intraperitoneally in a volume of 10 ml/kg.
1.5 hours before testing, mice are administered 0.2 mg/kg haloperidol, a dose that reduces baseline locomotor activity by at least 50%. […] Horizontal locomotor activity is determined by placing the cages within a frame containing a 3×6 array of photocells linked to a computer, which tabulates beam breaks. […]

catalepsy = conditions: cited from earlier work
[3] = cited from earlier work

Sequence of human adenosine A2A receptors (P29274 whole entry): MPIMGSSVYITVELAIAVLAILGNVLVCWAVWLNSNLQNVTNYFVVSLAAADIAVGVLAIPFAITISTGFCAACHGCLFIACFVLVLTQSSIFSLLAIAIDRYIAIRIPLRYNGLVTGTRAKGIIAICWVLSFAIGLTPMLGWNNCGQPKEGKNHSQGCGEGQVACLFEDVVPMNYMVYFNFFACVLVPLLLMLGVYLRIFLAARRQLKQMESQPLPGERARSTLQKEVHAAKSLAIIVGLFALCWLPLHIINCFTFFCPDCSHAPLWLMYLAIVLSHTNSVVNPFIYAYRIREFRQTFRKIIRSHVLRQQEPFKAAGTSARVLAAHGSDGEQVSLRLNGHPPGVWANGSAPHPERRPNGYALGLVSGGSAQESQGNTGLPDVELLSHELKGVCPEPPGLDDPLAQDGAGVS

- pKi [1]: 5.75
- melting point: 102 to 104 °C
SMILES: CCc1cccc2c(C(O)c3ccccc3)cc(C(F)(F)F)nc12 (stereo not drawn) [Example 31, 8-Ethyl-α-phenyl-2-trifluoromethy-4-quinolinemethanol]

- melting point: > 250 °C
SMILES: Oc1cc(C(O)C2CCCCC2)c2ccccc2n1 (stereo not drawn) [Example 86, α-Cyclohexyl-2-hydroxy-4-quinolinemethanol]
- reversal of haloperidol-induced hypolocomotion [2]: significantly reversed

SMILES: CCCn1c(=O)c2c(nc(/C=C/c3ccc(OC)c(OC)c3)n2C)n(CCC)c1=O [KF 17837, (E)-8-(3,4-dimethoxystyryl)-1,3-dipropyl-7-methylxanthine]
- anticataleptic effects of a subthreshold dose of L-DOPA plus benserazide (catalepsy; in vivo): potentiated
- catalepsy induced by haloperidol and reserpine (catalepsy; in vivo): reduced
- cataleptic responses induced by intracerebroventricular CGS 21680 (catalepsy; oral administration): significantly ameliorated

SMILES: Cn1c(=O)c2[nH]cnc2n(C)c1=O [theophylline, 1,3-dimethylxanthine]
- mean objective disability scores ([3]; 15 Parkinsonian patients, up to 12 weeks, 150 mg/day): significant improvements
- serum theophylline levels ([3]; slow release oral preparation 150 mg/day, after one week, Parkinsonian patients): 4.44 mg/L
